Experimental data published in the supplement of paper PMC13380429.

How the values were obtained:
Settings in all cases: 72 h
Caco-2 [1] = assay: cell viability relative to DMSO; higher = less toxic
Calu-3 [2] = assay: as above
HepG2 [3] = assay: as above
U2OS [4] = assay: as above
Vero E6 [5] = assay: as above
Caco-2 [6] = assay: relative viability EC50 (midpoint between 100% and the lowest measured viability); higher = less toxic
Calu-3 [7] = assay: as above
HepG2 [8] = assay: as above
U2OS [9] = assay: as above
Vero E6 [10] = assay: as above
Caco-2 [11] = assay: drug sensitivity score (DSS) for viability; higher = more toxic; extreme values may be limits of the assay
Calu-3 [12] = assay: as above
HepG2 [13] = assay: as above
U2OS [14] = assay: as above
Vero E6 [15] = assay: as above

| SMILES | cell viability (Caco-2 [1]; 1 nM) | cell viability (Caco-2 [1]; 10 nM) | cell viability (Caco-2 [1]; 100 nM) | cell viability (Caco-2 [1]; 1000 nM) | cell viability (Caco-2 [1]; 10000 nM) | cell viability (Calu-3 [2]; 1 nM) | cell viability (Calu-3 [2]; 10 nM) | cell viability (Calu-3 [2]; 100 nM) | cell viability (Calu-3 [2]; 1000 nM) | cell viability (Calu-3 [2]; 10000 nM) | cell viability (HepG2 [3]; 1 nM) | cell viability (HepG2 [3]; 10 nM) | cell viability (HepG2 [3]; 100 nM) | cell viability (HepG2 [3]; 1000 nM) | cell viability (HepG2 [3]; 10000 nM) | cell viability (U2OS [4]; 1 nM) | cell viability (U2OS [4]; 10 nM) | cell viability (U2OS [4]; 100 nM) | cell viability (U2OS [4]; 1000 nM) | cell viability (U2OS [4]; 10000 nM) | cell viability (Vero E6 [5]; 1 nM) | cell viability (Vero E6 [5]; 10 nM) | cell viability (Vero E6 [5]; 100 nM) | cell viability (Vero E6 [5]; 1000 nM) | cell viability (Vero E6 [5]; 10000 nM) | relative viability EC50 (Caco-2 [6]) | relative viability EC50 (Calu-3 [7]) | relative viability EC50 (HepG2 [8]) | relative viability EC50 (U2OS [9]) | relative viability EC50 (Vero E6 [10]) | drug sensitivity score (Caco-2 [11]) | drug sensitivity score (Calu-3 [12]) | drug sensitivity score (HepG2 [13]) | drug sensitivity score (U2OS [14]) | drug sensitivity score (Vero E6 [15]) |
| --- | --- | --- | --- | --- | --- | --- | --- | --- | --- | --- | --- | --- | --- | --- | --- | --- | --- | --- | --- | --- | --- | --- | --- | --- | --- | --- | --- | --- | --- | --- | --- | --- | --- | --- | --- |
| CCCCCCCCCC(=O)O[C@H]1CC[C@H]2[C@@H]3CCC4=CC(=O)CC[C@@H]4[C@H]3CC[C@]12C [Nandrolone decanoate] | 90.7% | 104% | 96.2% | 106% | 96.4% | 94.1% | 88.6% | 83% | 90.9% | 89% | 104% | 95.7% | 97.9% | 102% | 101% | 102% | 99.3% | 99.1% | 101% | 94% | 108% | 97.1% | 102% | 97.5% | 104% | > 10 µM | > 10 µM | > 10 µM | > 10 µM | > 10 µM | 0 | 0 | 0 | 0 | 0 |
| COC(=O)C1=C(C)NC(C)=C(C(=O)OCCSc2ccccc2)[C@@H]1C [PCA-4248] | 97.7% | 99.4% | 102% | 94.8% | 84% | 93.8% | 95.6% | 104% | 99% | 87.7% | 92% | 90.3% | 93.4% | 94.6% | 95.9% | 98% | 95.9% | 93.6% | 92.9% | 96.1% | 98.1% | 99.1% | 98.2% | 96.5% | 98.8% | > 10 µM | > 10 µM | > 10 µM | > 10 µM | > 10 µM | 0.8 | 0.1 | 0 | 0 | 0 |
| CN1CCN(C(=O)CN[C@@H]2C[C@H]2c2ccc(OCc3ccccc3)cc2)CC1 [RN-1] | 109% | 95.2% | 90.2% | 89.2% | 83.3% | 89.9% | 82.5% | 96.1% | 94.5% | 108% | 87.4% | 103% | 99.9% | 94.2% | 84.9% | 103% | 98.3% | 102% | 96.7% | 96% | 99.5% | 102% | 105% | 92.2% | 89.1% | > 10 µM | > 10 µM | > 10 µM | > 10 µM | > 10 µM | 1.5 | 0 | 0.7 | 0 | 0.1 |
| CS(=O)(=O)c1ccc([C@@H](CC2CCCC2)C(=O)Nc2nccs2)cc1 [Ro-28-1675] | 92% | 97.8% | 102% | 106% | 92.2% | 103% | 100% | 114% | 99.6% | 99.3% | 97.2% | 96.4% | 108% | 90.8% | 103% | 101% | 96.1% | 101% | 102% | 98.9% | 95.5% | 95.2% | 96.8% | 91.1% | 98.9% | > 10 µM | > 10 µM | > 10 µM | > 10 µM | > 10 µM | 0 | 0 | 0 | 0 | 0 |
| C[C@H](N)Cn1ccc2cc(F)c(Cl)cc21 [Ro-60-0175] | 94.9% | 90.9% | 101% | 95.8% | 85.2% | 93.7% | 92.3% | 87.4% | 95.6% | 87.2% | 99.5% | 101% | 106% | 99.8% | 103% | 96.5% | 106% | 96.9% | 104% | 93.3% | 104% | 98.4% | 100% | 95.3% | 96% | > 10 µM | > 10 µM | > 10 µM | > 10 µM | > 10 µM | 0.6 | 0 | 0 | 0 | 0 |
| O=C(N/N=C/c1ccccc1O)c1ccccc1O [SCS] | 97% | 97.6% | 88.6% | 76.5% | 3.6% | 108% | 94.9% | 98.2% | 99.3% | 11.9% | 102% | 94.6% | 94.1% | 86.6% | 5.5% | 98.7% | 104% | 95.6% | 91.1% | 46.3% | 97.6% | 100% | 101% | 102% | 45.4% | 1.6 µM | 3.11 µM | 2.04 µM | 1.89 µM | 3.35 µM | 8.8 | 5 | 7.5 | 4.4 | 2.8 |
| Fc1ccc(-c2nc(-c3c(F)cccc3F)[nH]c2-c2ccncc2)cc1 [TA-01] | 105% | 109% | 99.9% | 84.7% | 96.1% | 104% | 107% | 97.2% | 85.2% | 94.6% | 108% | 97.3% | 94.3% | 99.4% | 98.4% | 108% | 112% | 101% | 98.6% | 95.9% | 112% | 106% | 95% | 94.7% | 93.7% | > 10 µM | > 10 µM | > 10 µM | > 10 µM | > 10 µM | 1.5 | 1.6 | 0 | 0 | 0 |
| O=[N+]([O-])c1c(Nc2cc(F)cc(Cl)c2)ccc2nonc12 [TC-S-7009] | 99.2% | 96.3% | 97.2% | 95.9% | 92.9% | 102% | 98.1% | 104% | 106% | 104% | 93.1% | 103% | 95.3% | 85.7% | 94.5% | 100% | 106% | 97.9% | 105% | 95.9% | 102% | 102% | 96.4% | 99.5% | 95.8% | > 10 µM | > 10 µM | > 10 µM | > 10 µM | > 10 µM | 0 | 0 | 0 | 0 | 0 |
